Laboratory results from patent publication US5023265A, “Substituted 1-H-pyrrolopyridine-3-carboxamides” (Schering Corporation, priority 1990, dated 1991).
Read-outs that look alike come from different tables or passages of the source.

Assays:
[1] = tested on: Reversed Passive Arthus Reaction (RPAR) in the rat paw; assay: RPAR-Paw Assay (Reversed Passive Arthus Reaction, rat paw); assay type: in vivo, male Wistar/Lewis inbred albino rats; settings: oral, paw volume 2 hours postchallenge, read-out: RPAR-Paw % Inhib.
Protocol: In order to determine the antiinflammatory activity by the reverse passive Arthus response, male Wistar/Lewis inbred albino rats weighing 180-200 g were used. The rats were housed three animals per cage and fasted 24 hours prior to and during the study. Water was allowed ad libitum.
All reagents and drugs were prepared prior to the study. Crystallized and lyophilized bovine serum albumin (BSA) was solubilized in cold, sterile, pyrogen-free saline (PFS), 10 mg/mL. Lyophylized antibovine serum albumin (anti-BSA), the IgG fraction, was suspended or solubilized in an aqueous solution of methylcellulose (MC) with a homogenizer prior to administration.
One hour prior to sensitization with BSA, groups of animals (minimum six per group) were given drug in MC by gavage according to body weight (1.0 mL/100 g). Controls were given MC alone, and a drug standard, indomethacin, was usually included in each assay. Drugs were prepared so as to provide a dose for a 200 g animal, which was equivalent to the milligram per kilogram dose for the experiment. Each rat received an oral dose in a volume of approximately 2.0 mL. One hour after dosing, the animals were lightly anesthetized with ether and "sensitized" by injection into the penile vein with 0.2 mL of PFS containing 1 mg of BSA. One hour later, the animals were "challenged" in the right hind paw with subplantar injections of 0.2 mL PFS pyrogen-free salin containing 0.1 mg of anti-BSA bovine serum albumin. Immediately after the subplantar injections, the right hand paw was immersed (to the lateral maleolus) into the mercury well of a plethysmograph. The volume of mercury displaced was converted to weight and recorded. This value was considered to be the control reading for the animal. Paw volumes were also recorded with a plethysmograph during the development of the inflammation at 2 hours postchallenge.
Results were expressed by the change in paw volume from the control reading for each animal to that recorded 2 hours postchallenge. All drug-treated groups were compared to the MC control for significant differences by using analysis of variance (Duncan and Dunnetts). Differences from control in drug-treated groups were expressed as percent inhibition.
In order to determine the dose required to inhibit the inflammatory response by 50% (ED50), a minimum of three and a maximum of five points were included in the assay. The ED50 and the relative potency to a drug standard, indomethacin, were determined by linear regression analysis. (J. Med. Chem., 1984, Vol. 27, No. 1, 27). Results for representative compounds of the invention are shown in Columns 3 and 4 of Table 1 below.

[2] = tested on: Reversed Passive Arthus Reaction (RPAR) in the rat pleural cavity; assay: RPAR-Pleural Cavity Assay; assay type: in vivo, male rats; settings: for inhibition in vivo at 25 mg/kg / inhibition in vivo at 50 mg/kg: Rattus norvegicus, 4 hours
Protocol: RPAR-Pleural Cavity Assay
Groups of 4 male rats were injected in the penile vein with antigen (1 mg BSA in 0.2 mL of saline per rat) and 0.5 hour later injected in the pleural cavity with antibody (1.0 mg antibody protein in the IgG fraction of rabbit anti-BSA in 0.2 mL). […] After 4 hours the animals were killed with CO2, and the pleural cavities were opened and the exudate drained into a graduated conical glass centrifuge tube containing indomethacin (1.8 μg) and nordihydroguaiaretic acid (NDGA) (15 μg) to block ex vivo metabolite synthesis. The volume of the exudate was measured. The cavity was then washed out with saline-EDTA to achieve a final volume of 5.0 mL. The number of cells were determined in a Coulter Counter. The cells were spun-down (1000×g) and the exudate supernatant was added to 4 volumes of 95% ethanol and samples were kept on ice for 30 minutes. After removal of the protein precipitate (2,500×g) the ethanol extract of the exudate was dried under N2 and then stored at -20° C. For radioimmunoassay (RIA) analysis the samples were redissolved in water to a volume of 1 mL per rat. Utilizing internally spiked samples, recovery of TXB2 (tritiated thromboxane B2) and LTE4 (tritiated leukotriene-E4) from exudates was determined to be 84±2% (SEM) and 89±2% (N=4), respectively. Exudate samples were directly assayed in duplicate with the commercial ^3 H-TXB2 RIA kit from New England Nuclear and the ^3 H-LTC4 /D4 /E4 kit from Amersham. The assay was validated using reversed-phase HPLC analysis of LTs in the standard procedure described by M. W. Musch, R. W. Bryant, C. Coscollaela, R. F. Myers and M. I. Siegel, Prostaglandins, Vol. 29, pp 405-430 (1985). Samples of ethanol exudate extract were "spiked" with ^3 H-LTs to follow HPLC purification and recovery.

[3] = tested on: cyclooxygenase; assay: Rat CO/LO Inhibition: cyclooxygenase metabolite HHT in rat pleural neutrophils; assay type: cell-based, male Wistar-Lewis rats; settings: 5 M × 10^-5, rat neutrophils
Protocol: Male Wistar-Lewis rats were injected iv with 5 mg of BSA in 0.2 mL of pyrogen-free saline followed by an intrapleural injection of 500 μg of the IgG fraction of rabbit anti-BSA in 0.2 mL of pyrogen-free saline, all under light anesthesia. After 4 hours the pleural cavity exudate, consisting of 85-95% neutrophils, was removed. Neutrophils were isolated from the pleural exudates by centrifugation at 4° C. for 10 minutes at 200 g. The cell pellet was briefly resuspended in 17 mM Tris-HCl buffer, pH 7.2, containing 0.75% NH4 Cl in order to lyse red cells, followed by centrifugation at 4° C. for 5 minutes at 200 g. The pelleted neutrophils were rewashed in 50 mM Tris-HCl, pH 7.4, containing 100 mM NaCl and 1 mM CaCl2, for a final cell count of approximately 5×10^6 intact neutrophils/0.1 mL of suspension.
Arachidonic acid metabolism via cyclooxygenase and 5-lipoxygenase was determined by preincubating the above cell suspension with the test compound for 4 minutes at room temperature and then adding 0.1 mL of the preincubated cells to assay tubes. The final assay mixture (0.1 mL) contained 40 μM [1-^14 C]arachidonic acid, 10 μM calcium A23187 ionophore and 0.1% BRIJ®56 detergent. After 1 minutes at 37° C., assays were terminated by the addition of 2.4 mL of a CHCl3 /CH3 OH (1:1 v/v) mixture and 0.9 mL of 0.1% HCOOH. The suspension was vortexed, immediately cooled on ice, and centrifuged and the organic layer withdrawn. The extract was evaporated and resuspended in 0.1 mL of CHCl3 /CH3 OH (1:2, v/v) for spotting on silica gel TLC plates (without gypsum). Development was with petroleum ether/diethylether/acetic acid (40:60:1, v/v/v). Products were located by autoradiography and the appropriate regions scraped and counted in a liquid scintillation counter. The 5-lipoxygenase metabolite 5-hydroxy-6,8,11,14-eicosatetraenoic acid (5-HETE) and the cyclooxygenase metabolite 12-hydroxy-[…] (HHT) were identified by cochromatography with authentic standards on TLC plates. Results are reported as percent inhibition of cyclooxygenase and lipoxygenase metabolite formation. (Myers, R. F.; Siegel, M. I., Biochem. Biophys. Res. Commun., 1983, 112, 586.) Results with representative compounds of the invention are shown in Columns 10, 11 and 12 of Table 1 below.

[4] = tested on: Adjuvant-Induced Arthritis in Rats; assay: Adjuvant-Induced Arthritis in Rats (AAR); assay type: in vivo; settings: Rattus norvegicus, 504 h; dosed 1 hour prior to adjuvant, then 21 consecutive days
[5] = read-out: RPAR-Pleural Cavity % Inhibition Cells
[6] = exudate volume, read-out: RPAR-Pleural Cavity % Inhibition Fluid
[7] = 50 mg/kg, read-out: RPAR-Pleural Cavity % Inhibition Cells
[8] = 50 mg/kg, exudate volume, read-out: RPAR-Pleural Cavity % Inhibition Fluid

CCCCNC(=O)c1c(O)n(-c2ccccc2)c2ncccc12
inhibition in vivo at 25 mg/kg [1]: 29% | inhibition in vivo at 25 mg/kg [2, 5]: 19% | inhibition in vivo at 25 mg/kg [2, 6]: 0% | Cyclooxygenese/lipoxygenese % Inhib. HHT [3]: 44%

O=C(Nc1ccccc1)c1c(O)n(Cc2ccc(F)cc2)c2ncccc12
inhibition in vivo at 25 mg/kg [1]: 32% | inhibition in vivo at 25 mg/kg [2, 5]: 30% | inhibition in vivo at 25 mg/kg [2, 6]: 46% | Cyclooxygenese/lipoxygenese % Inhib. HHT [3]: 57%

O=C(Nc1ccccn1)c1c(O)n(-c2ccccc2)c2ncccc12
inhibition in vivo at 50 mg/kg [1]: 26% | Cyclooxygenese/lipoxygenese % Inhib. HHT [3]: 78%

CC(C)(C)n1c(O)c(C(=O)Nc2ccccc2)c2cccnc21
inhibition in vivo at 25 mg/kg [1]: 36% | inhibition in vivo at 25 mg/kg [2, 5]: 41% | inhibition in vivo at 25 mg/kg [2, 6]: 26%

O=C(O)c1cc(NC(=O)c2c(O)n(-c3ccccc3)c3ncccc23)ccc1O
inhibition in vivo at 25 mg/kg [1]: 4% | inhibition in vivo at 25 mg/kg [2, 5]: 0% | inhibition in vivo at 25 mg/kg [2, 6]: 0%

CC(C)c1ccc(-n2c(O)c(C(=O)Nc3ccccc3)c3cccnc32)cc1
inhibition in vivo at 25 mg/kg [1]: 34% | inhibition in vivo at 25 mg/kg [2, 5]: 9% | inhibition in vivo at 25 mg/kg [2, 6]: 8%

O=C(Nc1cccc(C(F)(F)F)c1)c1c(O)n(-c2ccccc2)c2ncccc12
inhibition in vivo at 25 mg/kg [1]: 41% | inhibition in vivo at 25 mg/kg [2, 5]: 22% | inhibition in vivo at 25 mg/kg [2, 6]: 0% | Cyclooxygenese/lipoxygenese % Inhib. HHT [3]: 60%

O=C(Nc1ccccc1)c1c(O)n(-c2cccc(C(F)(F)F)c2)c2ncccc12
inhibition in vivo at 50 mg/kg [1]: 60% | inhibition in vivo at 25 mg/kg [2, 5]: 0% | inhibition in vivo at 25 mg/kg [2, 6]: 0% | Cyclooxygenese/lipoxygenese % Inhib. HHT [3]: 56%

Cn1c(O)c(C(=O)Nc2ccccc2)c2cccnc21
inhibition in vivo at 25 mg/kg [2, 5]: 45% | inhibition in vivo at 25 mg/kg [2, 6]: 5% | Cyclooxygenese/lipoxygenese % Inhib. HHT [3]: 0%

CC(C)(C)NC(=O)c1c(O)n(-c2ccccc2)c2ncccc12
inhibition in vivo at 25 mg/kg [1]: 49% | inhibition in vivo at 25 mg/kg [2, 5]: 66% | inhibition in vivo at 25 mg/kg [2, 6]: 23%

O=C(Nc1ccccc1)c1c(O)n(-c2ccccc2)c2ncccc12
inhibition in vivo at 25 mg/kg [1]: 60% | RPAR-Pleural Cavity % Inhibition LTE4 ([2]; 50 mg/kg, LTE4 in exudate by RIA): 59% | RPAR-Pleural Cavity % Inhibition TXB2 ([2]; 50 mg/kg, TXB2 in exudate by RIA): 100% | inhibition in vivo at 25 mg/kg [2, 5]: 56% | inhibition in vivo at 25 mg/kg [2, 6]: 49% | inhibition in vivo at 50 mg/kg [2, 7]: 61% | inhibition in vivo at 50 mg/kg [2, 8]: 27% | Cyclooxygenese/lipoxygenese % Inhib. HHT [3]: 93% | ED50 [4]: 9 mg/kg

O=C(NCc1ccccc1)c1c(O)n(-c2ccccc2)c2ncccc12
inhibition in vivo at 25 mg/kg [1]: 0% | inhibition in vivo at 25 mg/kg [2, 5]: 0% | inhibition in vivo at 25 mg/kg [2, 6]: 0% | Cyclooxygenese/lipoxygenese % Inhib. HHT [3]: 34%

Cc1cc(NC(=O)c2c(O)n(-c3ccccc3)c3ncccc23)no1
inhibition in vivo at 25 mg/kg [1]: 10% | inhibition in vivo at 25 mg/kg [2, 5]: 0% | inhibition in vivo at 25 mg/kg [2, 6]: 0% | Cyclooxygenese/lipoxygenese % Inhib. HHT [3]: 45%

O=C(Nc1ccccc1)c1c(O)n(-c2ccc(Cl)cc2)c2ncccc12
inhibition in vivo at 50 mg/kg [1]: 56% | inhibition in vivo at 25 mg/kg [2, 5]: 51% | inhibition in vivo at 25 mg/kg [2, 6]: 18% | Cyclooxygenese/lipoxygenese % Inhib. HHT [3]: 96%

O=C(Nc1ccc(F)cc1F)c1c(O)n(-c2ccccc2)c2ncccc12
inhibition in vivo at 50 mg/kg [1]: 33% | Cyclooxygenese/lipoxygenese % Inhib. HHT [3]: 96%

O=C(Nc1ccccc1)c1c(O)n(Cc2ccccc2)c2ncccc12
inhibition in vivo at 25 mg/kg [1]: 42% | inhibition in vivo at 25 mg/kg [2, 5]: 36% | inhibition in vivo at 25 mg/kg [2, 6]: 76% | Cyclooxygenese/lipoxygenese % Inhib. HHT [3]: 34% | ED50 [4]: 33 mg/kg

CC(C)n1c(O)c(C(=O)Nc2ccccc2)c2cccnc21
inhibition in vivo at 25 mg/kg [2, 5]: 34% | inhibition in vivo at 25 mg/kg [2, 6]: 44% | inhibition in vivo at 50 mg/kg [2, 7]: 65% | inhibition in vivo at 50 mg/kg [2, 8]: 57%

O=C(Nc1ccccc1)c1c(O)[nH]c2ncccc12
inhibition in vivo at 25 mg/kg [1]: 22% | Cyclooxygenese/lipoxygenese % Inhib. HHT [3]: 0%

COc1ccc(NC(=O)c2c(O)n(-c3ccccc3)c3ncccc23)cc1
inhibition in vivo at 25 mg/kg [1]: 42% | inhibition in vivo at 25 mg/kg [2, 5]: 28% | inhibition in vivo at 25 mg/kg [2, 6]: 27%
